# Assay results as given in patent US20230263822A1, “MODULATION OF FACTOR 11 EXPRESSION” (Ionis Pharmaceuticals, Inc., priority 2008, published 2023).
# Strand notation (5' to 3'): a small letter for the sugar, then the base; units joined by * are phosphorothioate-linked, units joined directly phosphodiester-linked; [ ] holds rarer units or linkages, { } end groups; capitals alone tell only the bases. e = 2'-O-(2-methoxyethyl) (MOE); [5mC] = 5-methylcytosine; d = 2'-deoxy (DNA)
# What was measured:
# [1] = Hematology assays in cynomolgus monkeys (Example 46); type: in vivo
# Procedure, shortened: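 Two male and two female monkeys per group received antisense oligonucleotide subcutaneously at 25 mg/kg, three times weekly in week 1 then twice weekly through week 8; PBS controls dosed identically. Blood sampled pre-dose and repeatedly during dosing for PT, aPTT and hematologic factors; necropsy on day 55.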
# Factor 11 protein = Factor 11 protein in monkey plasma by sandwich ELISA (Example 46); type: in vivo, cynomolgus monkeys; conditions: cynomolgus monkeys, 25 mg/kg
# Protocol: Groups, each consisting of two male and two female monkeys, were injected subcutaneously with 25 mg/kg of ISIS 416850, ISIS 449709, ISIS 445522, ISIS 449710, ISIS 449707, ISIS 449711, ISIS 449708, 416858, and ISIS 445531. Antisense oligonucleotide was administered to the monkeys at 25 mg/kg three times per week for week 1 and 25 mg/kg twice per week for weeks 2 to 8. A control group, consisting of two male and two female monkeys was injected subcutaneously with PBS according to the same dosing regimen. Body weights were taken 14 days and 7 days before the start of treatment and were then measured weekly throughout the treatment period. Blood samples were collected 14 days and 5 days before the start of treatment and subsequently several times during the dosing regimen for PT and aPTT measurements, and measurement of various hematologic factors. On day 55, the monkeys were euthanized by exsanguination while under deep anesthesia, and organs harvested for further analysis.
# Plasma samples from all monkey groups taken on different days were analyzed by a sandwich-style ELISA assay (Affinity Biologicals Inc.) using an affinity-purified polyclonal anti-Factor 11 antibody as the capture antibody and a peroxidase-conjugated polyclonal anti-Factor 11 antibody as the detecting antibody. Monkey plasma was diluted 1:50 for the assay. Peroxidase activity was expressed by incubation with the substrate o-phenylenediamine. The color produced was quantified using a microplate reader at 490 nm and was considered to be proportional to the concentration of Factor 11 in the samples.
# The results are presented in Table 147, expressed as percentage reduction relative to that of the PBS control.
# [2] = system: IL-1β, IL-6, IFN-γ, TNF-α, IL-8, MIP-1α, MCP-1, MIP-1β, RANTES; test: Cytokine and chemokine assays in cynomolgus monkeys (Example 46); type: in vivo
# Procedure, shortened: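 Male and female monkeys, four per group, received antisense oligonucleotide s.c. at 25 mg/kg three times weekly in week 1, then twice weekly through week 8, against a PBS control. Blood was sampled 14 days pre-dose and on day 55, using primate antibodies (IL-1β, IL-6, IFN-γ, TNF-α) or cross-reacting human antibodies (others).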
# [3] = day-14 (before start of treatment)
substance,measurement,setting,value
"ISIS 449709: 3-8-3, 4-8-4, 2-10-2, 3-10-3 or 4-10-4 MOE microwalk gapmer (Table 46) (antisense eG*e[5mC]*eA*e[5mC]*dA*dG*dT*dT*dT*d[5mC]*dT*dG*dG*d[5mC]*eA*eG*eG*e[5mC])",HCT,[1]; Day 17,43%
same,MCH,[1]; Day 17,22.5 pg
same,MCHC,[1]; Day 17,30.7 g/dL
same,MCV,[1]; Day 17,73 fL
same,RBC count,[1]; Day 17,5.9e+06 µL⁻¹
same,WBC count,[1]; Day 17,11000 µL⁻¹
same,hemoglobin content,[1]; Day 17,13.2 g/dL
same,monocytes,[1]; Day 17,3.0%
same,neutrophils,[1]; Day 17,89%
same,platelet count,[1]; Day 17,449 ×100/μL
same,HCT,[1]; Day 31,42%
same,MCH,[1]; Day 31,22.2 pg
same,MCHC,[1]; Day 31,30.7 g/dL
same,MCV,[1]; Day 31,73 fL
same,RBC count,[1]; Day 31,5.9e+06 µL⁻¹
same,WBC count,[1]; Day 31,11000 µL⁻¹
same,hemoglobin content,[1]; Day 31,13.1 g/dL
same,monocytes,[1]; Day 31,2.8%
same,neutrophils,[1]; Day 31,81%
same,platelet count,[1]; Day 31,471 ×100/μL
same,HCT,[1]; Day 45,41%
same,MCH,[1]; Day 45,21.0 pg
same,MCHC,[1]; Day 45,31.1 g/dL
same,MCV,[1]; Day 45,71 fL
same,RBC count,[1]; Day 45,5.7e+06 µL⁻¹
same,WBC count,[1]; Day 45,11000 µL⁻¹
same,hemoglobin content,[1]; Day 45,12.6 g/dL
same,monocytes,[1]; Day 45,3.6%
same,neutrophils,[1]; Day 45,77%
same,platelet count,[1]; Day 45,418 ×100/μL
same,HCT,[1]; Day 55,40%
same,MCH,[1]; Day 55,22.0 pg
same,MCHC,[1]; Day 55,31.2 g/dL
same,MCV,[1]; Day 55,71 fL
same,RBC count,[1]; Day 55,5.7e+06 µL⁻¹
same,WBC count,[1]; Day 55,10000 µL⁻¹
same,hemoglobin content,[1]; Day 55,12.5 g/dL
same,monocytes,[1]; Day 55,3.4%
same,neutrophils,[1]; Day 55,115%
same,platelet count,[1]; Day 55,441 ×100/μL
same,HCT,[1]; Day-5,42%
same,MCH,[1]; Day-5,22.3 pg
same,MCHC,[1]; Day-5,30.3 g/dL
same,MCV,[1]; Day-5,74 fL
same,RBC count,[1]; Day-5,5.8e+06 µL⁻¹
same,WBC count,[1]; Day-5,10000 µL⁻¹
same,hemoglobin content,[1]; Day-5,12.8 g/dL
same,monocytes,[1]; Day-5,2.0%
same,neutrophils,[1]; Day-5,101%
same,platelet count,[1]; Day-5,481 ×100/μL
same,HCT,[1]; Day-14,41%
same,MCH,[1]; Day-14,22.4 pg
same,MCHC,[1]; Day-14,31.4 g/dL
same,MCV,[1]; Day-14,72 fL
same,RBC count,[1]; Day-14,5.8e+06 µL⁻¹
same,WBC count,[1]; Day-14,11000 µL⁻¹
same,hemoglobin content,[1]; Day-14,12.8 g/dL
same,monocytes,[1]; Day-14,4.0%
same,neutrophils,[1]; Day-14,73%
same,platelet count,[1]; Day-14,456 ×100/μL
same,Factor 11 protein levels in plasma,Factor 11 protein,time-dependent decrease in protein levels
same,IFN-γ level,[2]; day 55,25 pg/mL
same,IL-1ß level,[2]; day 55,181 pg/mL
same,IL-6 level,[2]; day 55,0 pg/mL
same,IL-8 level,[2]; day 55,254 pg/mL
same,MCP-1 level,[2]; day 55,507 pg/mL
same,MIP-1ß level,[2]; day 55,47 pg/mL
same,MIP-1α level,[2]; day 55,17 pg/mL
same,RANTES level,[2]; day 55,8958 pg/mL
same,TNF-α level,[2]; day 55,8 pg/mL
same,IFN-γ level,[2]; [3],37 pg/mL
same,IL-1ß level,[2]; [3],137 pg/mL
same,IL-6 level,[2]; [3],1 pg/mL
same,IL-8 level,[2]; [3],34 pg/mL
same,MCP-1 level,[2]; [3],290 pg/mL
same,MIP-1ß level,[2]; [3],14 pg/mL
same,MIP-1α level,[2]; [3],13 pg/mL
same,RANTES level,[2]; [3],2471 pg/mL
same,TNF-α level,[2]; [3],9 pg/mL
ISIS 445522: 5-8-5 or 6-8-6 MOE microwalk gapmer (Table 44) (antisense eG*e[5mC]*eA*e[5mC]*eA*dG*dT*dT*dT*d[5mC]*dT*dG*dG*e[5mC]*eA*eG*eG*e[5mC]),HCT,[1]; Day 17,41%
same,MCH,[1]; Day 17,22.8 pg
same,MCHC,[1]; Day 17,30.9 g/dL
same,MCV,[1]; Day 17,74 fL
same,RBC count,[1]; Day 17,5.6e+06 µL⁻¹
same,WBC count,[1]; Day 17,11000 µL⁻¹
same,hemoglobin content,[1]; Day 17,12.7 g/dL
same,monocytes,[1]; Day 17,3.6%
same,neutrophils,[1]; Day 17,81%
same,platelet count,[1]; Day 17,521 ×100/μL
same,HCT,[1]; Day 31,43%
same,MCH,[1]; Day 31,22.4 pg
same,MCHC,[1]; Day 31,30.0 g/dL
same,MCV,[1]; Day 31,75 fL
same,RBC count,[1]; Day 31,5.8e+06 µL⁻¹
same,WBC count,[1]; Day 31,13000 µL⁻¹
same,hemoglobin content,[1]; Day 31,12.9 g/dL
same,monocytes,[1]; Day 31,3.9%
same,neutrophils,[1]; Day 31,66%
same,platelet count,[1]; Day 31,425 ×100/μL
same,HCT,[1]; Day 45,41%
same,MCH,[1]; Day 45,22.4 pg
same,MCHC,[1]; Day 45,30.7 g/dL
same,MCV,[1]; Day 45,73 fL
same,RBC count,[1]; Day 45,5.7e+06 µL⁻¹
same,WBC count,[1]; Day 45,10000 µL⁻¹
same,hemoglobin content,[1]; Day 45,12.6 g/dL
same,monocytes,[1]; Day 45,4.4%
same,neutrophils,[1]; Day 45,69%
same,platelet count,[1]; Day 45,403 ×100/μL
same,HCT,[1]; Day 55,39%
same,MCH,[1]; Day 55,22.2 pg
same,MCHC,[1]; Day 55,31.0 g/dL
same,MCV,[1]; Day 55,72 fL
same,RBC count,[1]; Day 55,5.4e+06 µL⁻¹
same,WBC count,[1]; Day 55,11000 µL⁻¹
same,hemoglobin content,[1]; Day 55,12.0 g/dL
same,monocytes,[1]; Day 55,3.0%
same,neutrophils,[1]; Day 55,125%
same,platelet count,[1]; Day 55,333 ×100/μL
same,HCT,[1]; Day-5,42%
same,MCH,[1]; Day-5,22.5 pg
same,MCHC,[1]; Day-5,30.4 g/dL
same,MCV,[1]; Day-5,74 fL
same,RBC count,[1]; Day-5,5.6e+06 µL⁻¹
same,WBC count,[1]; Day-5,9000 µL⁻¹
same,hemoglobin content,[1]; Day-5,12.7 g/dL
same,monocytes,[1]; Day-5,2.3%
same,neutrophils,[1]; Day-5,84%
same,platelet count,[1]; Day-5,512 ×100/μL
same,HCT,[1]; Day-14,42%
same,MCH,[1]; Day-14,22.6 pg
same,MCHC,[1]; Day-14,31.4 g/dL
same,MCV,[1]; Day-14,72 fL
same,RBC count,[1]; Day-14,5.9e+06 µL⁻¹
same,WBC count,[1]; Day-14,10000 µL⁻¹
same,hemoglobin content,[1]; Day-14,13.3 g/dL
same,monocytes,[1]; Day-14,2.1%
same,neutrophils,[1]; Day-14,61%
same,platelet count,[1]; Day-14,433 ×100/μL
same,Factor 11 protein levels in plasma,Factor 11 protein,time-dependent decrease in protein levels
same,IFN-γ level,[2]; day 55,83 pg/mL
same,IL-1ß level,[2]; day 55,341 pg/mL
same,IL-6 level,[2]; day 55,2 pg/mL
same,IL-8 level,[2]; day 55,100 pg/mL
same,MCP-1 level,[2]; day 55,592 pg/mL
same,MIP-1ß level,[2]; day 55,63 pg/mL
same,MIP-1α level,[2]; day 55,22 pg/mL
same,RANTES level,[2]; day 55,16154 pg/mL
same,TNF-α level,[2]; day 55,18 pg/mL
same,IFN-γ level,[2]; [3],172 pg/mL
same,IL-1ß level,[2]; [3],188 pg/mL
same,IL-6 level,[2]; [3],5 pg/mL
same,IL-8 level,[2]; [3],32 pg/mL
same,MCP-1 level,[2]; [3],297 pg/mL
same,MIP-1ß level,[2]; [3],27 pg/mL
same,MIP-1α level,[2]; [3],22 pg/mL
same,RANTES level,[2]; [3],3477 pg/mL
same,TNF-α level,[2]; [3],16 pg/mL
